Patent publication US6355658B1, “Coumarin derivatives, methods of preparation and application as medicines” (Centre National de la Recherche Scientifique, priority 1997, dated 2002)

System: not given
Experiment: not given
Conditions: not given

melting point	SMILES
171 to 172 °C	O=C(Oc1ccc(Cl)cn1)c1cc2cc(CCl)ccc2oc1=O [Ic′″13, 5-chloro-2-pyridyl 6-chloromethyl-2-oxo-2H-1-benzopyran-3-carboxylate]
156 to 158 °C	CCC(=O)OCc1ccc2oc(=O)c(C(=O)Oc3cncc(Cl)c3)cc2c1 [Id6, 5-chloro-3-pyridyl 6-propionyloxymethyl-2-oxo-2H-1-benzopyran-3-carboxylate]
230 °C (dec.)	Cl.NCc1ccc2oc(=O)c(C(=O)Oc3cncc(Cl)c3)cc2c1 [If3, 5-chloro-3-pyridyl 6-aminomethyl-2-oxo-2H-1-benzopyran-3-carboxylate hydrochloride]

SMILES	melting point
CC(=O)OCc1ccc2oc(=O)c(C(=O)Oc3cncc(Cl)c3)cc2c1 [Id3, 5-chloro-3-pyridyl 6-acetoxymethyl-2-oxo-2H-1-benzopyran-3-carboxylate]	153 to 155 °C

Biological target: T1, bovine trypsin (Bos taurus, UniProt P00760)
T1 sequence (P00760 24-246): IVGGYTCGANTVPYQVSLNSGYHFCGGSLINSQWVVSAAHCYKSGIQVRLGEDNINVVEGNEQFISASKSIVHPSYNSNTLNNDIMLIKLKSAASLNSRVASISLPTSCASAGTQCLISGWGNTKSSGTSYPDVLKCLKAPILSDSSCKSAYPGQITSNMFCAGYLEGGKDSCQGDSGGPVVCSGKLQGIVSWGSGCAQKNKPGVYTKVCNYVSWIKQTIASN
Experiment: Inactivation kinetics of bovine trypsin (chromogenic substrate N-benzoyl-Arg-pNA)
Type: biochemical
Conditions: TABLE 3; 25° C., pH 7.5; N.I. = non-inactivator
Protocol: (§1) The inactivating or inhibitory properties of the coumarin derivatives were tested with respect to a certain number of enzymes: human leukocyte elastase, bovine α-chymotrypsin, human thrombin and bovine trypsin. The kinetic measurements were taken at 25° C. in the following buffers: 0.1 M Hepes, 0.5 M NaCl, 0.01% Tween 80, pH 8.0 (human leukocyte elastase); 0.025 M NaH2PO4, 0.05 M KCl, pH 7.5 (α-chymotrypsin); 0.01 M Tris, 0.01 M Hepes, 0.1 M NaCl, 0.1% PEG-6000, pH 7.5 (human thrombin); 0.1 M Tris, 0.01 M CaCl2, pH 7.5 (bovine trypsin). The chromogenic substrates used to determine the activity of the enzymes are: MeOSuc-Ala2-Pro-Val-pNA (human leukocyte elastase); Suc-Ala2-Pro-Phe-pNA (α-chymotrypsin); H-D-Phe-Pip-Arg-pNA (human thrombin); N-benzoyl-Arg-pNA (bovine trypsin) (pNA: para-nitroaniline).
(§2) The interaction of a suicide substrate with a serine protease corresponds to the minimum reaction scheme described in equation 1 in which E represents the enzyme, I represents the inhibitor, E-I represents the acyl-enzyme and E-I′ represents the inactivated enzyme [Silverman R. B., 1988, “Mechanism-based enzyme inactivation: chemistry and enzymology”, volume 1 CRC Press, Boca Raton, Fla.]: [drawing 76]
(§3) When k4 is small compared to k3, equation 1 can be simplified (equation 2, [Daniels et al., 1983, J. Biol. Chem., 258: 15046-15053]): [drawing 77]
(§4) Considering the first instants of the reaction, the system reduces to a simplified equation of the form of equation 2.
(§5) The kinetic constants characterizing the inactivation of the enzymes with the coumarin derivatives were determined using either the conventional sampling method (or batchwise method) or a method placing the inhibitor and the substrate in competition (or continuous method); these methods are described by Pochet et al. [Pochet et al., 1996, J. Med. Chem., 39: 2579-2585].
(§6) The inactivation of serine proteaaes with the coumarin derivatives is thus characterized by the following constants (see Eq. 2):
(§7) KI: apparent dissociation constant of an enzyme-inhibitor complex located upstream of ki
(§8) ki: first-order rate constant for inactivation at infinite inhibitor concentration
(§9) ki/KI: index of the overall inactivating efficacy of the inhibitor.

SMILES	Ki/KI or kobs/[I], Trypsin
O=C(Oc1cncc(Cl)c1)c1cc2ccccc2oc1=O [Ia3, 5-chloro-3-pyridyl 2-oxo-2H-1-benzopyran-3-carboxylate]	N.I. N.I. N.I. N.I. N.I. N.I. N.I. — —
CC(=O)OCc1ccc2oc(=O)c(C(=O)Oc3cncc(Cl)c3)cc2c1 [Id3, 5-chloro-3-pyridyl 6-acetoxymethyl-2-oxo-2H-1-benzopyran-3-carboxylate]	N.I. N.I. N.I. N.I. N.I. N.I. N.I. — —
CCC(=O)OCc1ccc2oc(=O)c(C(=O)Oc3cncc(Cl)c3)cc2c1 [Id6, 5-chloro-3-pyridyl 6-propionyloxymethyl-2-oxo-2H-1-benzopyran-3-carboxylate]	N.I. N.I. N.I. N.I. N.I. N.I. N.I. — —
CC(C)(C)C(=O)OCc1ccc2oc(=O)c(C(=O)Oc3cncc(Cl)c3)cc2c1 [Id8, 5-chloro-3-pyridyl 6-trimethylacetoxymethyl-2-oxo-2H-1-benzopyran-3-carboxylate]	N.I. N.I. N.I. N.I. N.I. N.I. N.I. — —

Same assay, conditions: second table headed TABLE 3; 25° C., pH 7.5; N.I. = non-inactivator

SMILES	Ki/KI or kobs/[I], Trypsin
CC(=O)OCc1ccc2oc(=O)c(C(=O)Oc3cncc(Cl)c3)cc2c1 [Id3, 5-chloro-3-pyridyl 6-acetoxymethyl-2-oxo-2H-1-benzopyran-3-carboxylate]	N.I. N.I. N.I. N.I. N.I. N.I. N.I. — —
CCC(=O)OCc1ccc2oc(=O)c(C(=O)Oc3cncc(Cl)c3)cc2c1 [Id6, 5-chloro-3-pyridyl 6-propionyloxymethyl-2-oxo-2H-1-benzopyran-3-carboxylate]	N.I. N.I. N.I. N.I. N.I. N.I. N.I. — —

Biological target: T2, bovine α-chymotrypsin (Bos taurus, UniProt P00766)
T2 construct: bovine α-chymotrypsin
Experiment: Inactivation kinetics of bovine α-chymotrypsin (chromogenic substrate Suc-Ala2-Pro-Phe-pNA)
Type: biochemical
Conditions: TABLE 1, 2-pyridyl esters; 25° C., pH 7.5; N.I. = non-inactivator; read-out: Ki/KI or kobs/[I], α-CT
Protocol: as §1, §2, §3, §4, §5, §6, §7, §8, §9

kinact/KI [M⁻¹ s⁻¹]	SMILES
~2500	O=C(Oc1ccc(Cl)cn1)c1cc2cc(CCl)ccc2oc1=O [Ic′″13, 5-chloro-2-pyridyl 6-chloromethyl-2-oxo-2H-1-benzopyran-3-carboxylate]

Same assay, conditions: TABLE 3, no chloromethyl in position 6; 25° C., pH 7.5; N.I. = non-inactivator

SMILES	Ki/KI or kobs/[I], α-CT
O=C(Oc1cncc(Cl)c1)c1cc2ccccc2oc1=O [Ia3, 5-chloro-3-pyridyl 2-oxo-2H-1-benzopyran-3-carboxylate]	N.I.^a N.I. N.I. N.I. N.I. N.I. N.I. N.I.
CC(=O)OCc1ccc2oc(=O)c(C(=O)Oc3cncc(Cl)c3)cc2c1 [Id3, 5-chloro-3-pyridyl 6-acetoxymethyl-2-oxo-2H-1-benzopyran-3-carboxylate]	N.I.^a N.I. N.I. N.I. N.I. N.I. N.I. N.I.
CCC(=O)OCc1ccc2oc(=O)c(C(=O)Oc3cncc(Cl)c3)cc2c1 [Id6, 5-chloro-3-pyridyl 6-propionyloxymethyl-2-oxo-2H-1-benzopyran-3-carboxylate]	N.I.^a N.I. N.I. N.I. N.I. N.I. N.I. N.I.
CC(C)(C)C(=O)OCc1ccc2oc(=O)c(C(=O)Oc3cncc(Cl)c3)cc2c1 [Id8, 5-chloro-3-pyridyl 6-trimethylacetoxymethyl-2-oxo-2H-1-benzopyran-3-carboxylate]	N.I.^a N.I. N.I. N.I. N.I. N.I. N.I. N.I.
Cl.NCc1ccc2oc(=O)c(C(=O)Oc3cncc(Cl)c3)cc2c1 [If3, 5-chloro-3-pyridyl 6-aminomethyl-2-oxo-2H-1-benzopyran-3-carboxylate hydrochloride]	N.I.^a N.I. N.I. N.I. N.I. N.I. N.I. N.I.

Same assay, conditions: second table headed TABLE 3; 25° C., pH 7.5; N.I. = non-inactivator

SMILES	Ki/KI or kobs/[I], α-CT
CC(=O)OCc1ccc2oc(=O)c(C(=O)Oc3cncc(Cl)c3)cc2c1 [Id3, 5-chloro-3-pyridyl 6-acetoxymethyl-2-oxo-2H-1-benzopyran-3-carboxylate]	N.I.^a N.I. N.I. N.I. N.I. N.I. N.I. N.I.
CCC(=O)OCc1ccc2oc(=O)c(C(=O)Oc3cncc(Cl)c3)cc2c1 [Id6, 5-chloro-3-pyridyl 6-propionyloxymethyl-2-oxo-2H-1-benzopyran-3-carboxylate]	N.I.^a N.I. N.I. N.I. N.I. N.I. N.I. N.I.
Cl.NCc1ccc2oc(=O)c(C(=O)Oc3cncc(Cl)c3)cc2c1 [If3, 5-chloro-3-pyridyl 6-aminomethyl-2-oxo-2H-1-benzopyran-3-carboxylate hydrochloride]	N.I.^a N.I. N.I. N.I. N.I. N.I. N.I. N.I.

Biological target: T3, human leukocyte elastase (Homo sapiens, UniProt P08246)
T3 sequence (P08246 30-247 limits assumed): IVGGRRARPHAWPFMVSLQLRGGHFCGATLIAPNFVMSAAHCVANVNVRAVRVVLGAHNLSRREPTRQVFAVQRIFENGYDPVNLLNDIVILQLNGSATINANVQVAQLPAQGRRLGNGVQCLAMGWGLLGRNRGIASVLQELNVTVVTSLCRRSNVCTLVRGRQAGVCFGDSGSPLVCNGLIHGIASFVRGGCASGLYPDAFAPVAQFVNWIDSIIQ
Experiment: Inactivation kinetics of human leukocyte elastase (chromogenic substrate MeOSuc-Ala2-Pro-Val-pNA)
Type: biochemical
Conditions: TABLE 1, 2-pyridyl esters; 25° C., pH 8.0; inactivation phase of transient inactivation; read-out: Ki/KI or kobs/[I], LHE
Protocol: as §1, §2, §3, §4, §5, §6, §7, §8, §9

kinact/KI [M⁻¹ s⁻¹]	SMILES
110	O=C(Oc1ccc(Cl)cn1)c1cc2cc(CCl)ccc2oc1=O [Ic′″13, 5-chloro-2-pyridyl 6-chloromethyl-2-oxo-2H-1-benzopyran-3-carboxylate]

Same assay, conditions: TABLE 1; 25° C., pH 8.0; inactivation phase

Ki/KI or kobs/[I], LHE [M⁻¹ s⁻¹]	SMILES
110	O=C(Oc1ccc(Cl)cn1)c1cc2cc(CCl)ccc2oc1=O [Ic′″13, 5-chloro-2-pyridyl 6-chloromethyl-2-oxo-2H-1-benzopyran-3-carboxylate]

Same assay, conditions: TABLE 3, no chloromethyl in position 6; 25° C., pH 8.0; inactivation phase of transient inactivation; read-out: Ki/KI or kobs/[I], LHE

kinact/KI [M⁻¹ s⁻¹]	SMILES
32800	O=C(Oc1cncc(Cl)c1)c1cc2ccccc2oc1=O [Ia3, 5-chloro-3-pyridyl 2-oxo-2H-1-benzopyran-3-carboxylate]
62000	CCC(=O)OCc1ccc2oc(=O)c(C(=O)Oc3cncc(Cl)c3)cc2c1 [Id6, 5-chloro-3-pyridyl 6-propionyloxymethyl-2-oxo-2H-1-benzopyran-3-carboxylate]
9100	Cl.NCc1ccc2oc(=O)c(C(=O)Oc3cncc(Cl)c3)cc2c1 [If3, 5-chloro-3-pyridyl 6-aminomethyl-2-oxo-2H-1-benzopyran-3-carboxylate hydrochloride]

SMILES	kinact/KI [M⁻¹ s⁻¹]
CC(=O)OCc1ccc2oc(=O)c(C(=O)Oc3cncc(Cl)c3)cc2c1 [Id3, 5-chloro-3-pyridyl 6-acetoxymethyl-2-oxo-2H-1-benzopyran-3-carboxylate]	107000
CC(C)(C)C(=O)OCc1ccc2oc(=O)c(C(=O)Oc3cncc(Cl)c3)cc2c1 [Id8, 5-chloro-3-pyridyl 6-trimethylacetoxymethyl-2-oxo-2H-1-benzopyran-3-carboxylate]	95500

Same assay, conditions: TABLE 3; 25° C., pH 8.0; inactivation phase

Ki/KI or kobs/[I], LHE [M⁻¹ s⁻¹]	SMILES
62000	CCC(=O)OCc1ccc2oc(=O)c(C(=O)Oc3cncc(Cl)c3)cc2c1 [Id6, 5-chloro-3-pyridyl 6-propionyloxymethyl-2-oxo-2H-1-benzopyran-3-carboxylate]
9100	Cl.NCc1ccc2oc(=O)c(C(=O)Oc3cncc(Cl)c3)cc2c1 [If3, 5-chloro-3-pyridyl 6-aminomethyl-2-oxo-2H-1-benzopyran-3-carboxylate hydrochloride]

SMILES	Ki/KI or kobs/[I], LHE [M⁻¹ s⁻¹]
CC(=O)OCc1ccc2oc(=O)c(C(=O)Oc3cncc(Cl)c3)cc2c1 [Id3, 5-chloro-3-pyridyl 6-acetoxymethyl-2-oxo-2H-1-benzopyran-3-carboxylate]	107000

Biological target: T4, human thrombin (Homo sapiens, UniProt P00734)
T4 construct: human thrombin
Experiment: Inactivation kinetics of human thrombin (chromogenic substrate H-D-Phe-Pip-Arg-pNA)
Type: biochemical
Conditions: TABLE 1, 2-pyridyl esters; 25° C., pH 7.5; inactivation phase; N.I. = non-inactivator
Protocol: as §1, §2, §3, §4, §5, §6, §7, §8, §9

Ki/KI or kobs/[I], Thrombin	SMILES
N.I.	O=C(Oc1ccc(Cl)cn1)c1cc2cc(CCl)ccc2oc1=O [Ic′″13, 5-chloro-2-pyridyl 6-chloromethyl-2-oxo-2H-1-benzopyran-3-carboxylate]

Same assay, conditions: TABLE 1; 25° C., pH 7.5; inactivation phase; N.I. = non-inactivator

Ki/KI or kobs/[I], Thrombin	SMILES
N.I.	O=C(Oc1ccc(Cl)cn1)c1cc2cc(CCl)ccc2oc1=O [Ic′″13, 5-chloro-2-pyridyl 6-chloromethyl-2-oxo-2H-1-benzopyran-3-carboxylate]

Same assay, conditions: TABLE 3; 25° C., pH 7.5; N.I. = non-inactivator

SMILES	Ki/KI or kobs/[I], Thrombin
O=C(Oc1cncc(Cl)c1)c1cc2ccccc2oc1=O [Ia3, 5-chloro-3-pyridyl 2-oxo-2H-1-benzopyran-3-carboxylate]	N.I. N.I. N.I. N.I. N.I. N.I. N.I. N.I. —
CC(=O)OCc1ccc2oc(=O)c(C(=O)Oc3cncc(Cl)c3)cc2c1 [Id3, 5-chloro-3-pyridyl 6-acetoxymethyl-2-oxo-2H-1-benzopyran-3-carboxylate]	N.I. N.I. N.I. N.I. N.I. N.I. N.I. N.I. —
CCC(=O)OCc1ccc2oc(=O)c(C(=O)Oc3cncc(Cl)c3)cc2c1 [Id6, 5-chloro-3-pyridyl 6-propionyloxymethyl-2-oxo-2H-1-benzopyran-3-carboxylate]	N.I. N.I. N.I. N.I. N.I. N.I. N.I. N.I. —
CC(C)(C)C(=O)OCc1ccc2oc(=O)c(C(=O)Oc3cncc(Cl)c3)cc2c1 [Id8, 5-chloro-3-pyridyl 6-trimethylacetoxymethyl-2-oxo-2H-1-benzopyran-3-carboxylate]	N.I. N.I. N.I. N.I. N.I. N.I. N.I. N.I. —
Cl.NCc1ccc2oc(=O)c(C(=O)Oc3cncc(Cl)c3)cc2c1 [If3, 5-chloro-3-pyridyl 6-aminomethyl-2-oxo-2H-1-benzopyran-3-carboxylate hydrochloride]	N.I. N.I. N.I. N.I. N.I. N.I. N.I. N.I. —

Same assay, conditions: second table headed TABLE 3; 25° C., pH 7.5; N.I. = non-inactivator

SMILES	Ki/KI or kobs/[I], Thrombin
CC(=O)OCc1ccc2oc(=O)c(C(=O)Oc3cncc(Cl)c3)cc2c1 [Id3, 5-chloro-3-pyridyl 6-acetoxymethyl-2-oxo-2H-1-benzopyran-3-carboxylate]	N.I. N.I. N.I. N.I. N.I. N.I. N.I. N.I. —
CCC(=O)OCc1ccc2oc(=O)c(C(=O)Oc3cncc(Cl)c3)cc2c1 [Id6, 5-chloro-3-pyridyl 6-propionyloxymethyl-2-oxo-2H-1-benzopyran-3-carboxylate]	N.I. N.I. N.I. N.I. N.I. N.I. N.I. N.I. —
Cl.NCc1ccc2oc(=O)c(C(=O)Oc3cncc(Cl)c3)cc2c1 [If3, 5-chloro-3-pyridyl 6-aminomethyl-2-oxo-2H-1-benzopyran-3-carboxylate hydrochloride]	N.I. N.I. N.I. N.I. N.I. N.I. N.I. N.I. —
